Data as given in ChEMBL document CHEMBL1909046, “DrugMatrix in vitro pharmacology data”.

How the values were obtained:
[1] = target: T1, Polyunsaturated fatty acid lipoxygenase ALOX15 (Oryctolagus cuniculus, UniProt P12530); assay: biochemical; assay type: tissue-based, Reticulocytes; conditions: reticulocytes;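 note: inhibition of 15-lipoxygenase enzyme activity measured with linoleic acid as the substrate; in other assays of this panel Not Active means under 50% inhibition at 10 µM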
T1 sequence (P12530 whole entry): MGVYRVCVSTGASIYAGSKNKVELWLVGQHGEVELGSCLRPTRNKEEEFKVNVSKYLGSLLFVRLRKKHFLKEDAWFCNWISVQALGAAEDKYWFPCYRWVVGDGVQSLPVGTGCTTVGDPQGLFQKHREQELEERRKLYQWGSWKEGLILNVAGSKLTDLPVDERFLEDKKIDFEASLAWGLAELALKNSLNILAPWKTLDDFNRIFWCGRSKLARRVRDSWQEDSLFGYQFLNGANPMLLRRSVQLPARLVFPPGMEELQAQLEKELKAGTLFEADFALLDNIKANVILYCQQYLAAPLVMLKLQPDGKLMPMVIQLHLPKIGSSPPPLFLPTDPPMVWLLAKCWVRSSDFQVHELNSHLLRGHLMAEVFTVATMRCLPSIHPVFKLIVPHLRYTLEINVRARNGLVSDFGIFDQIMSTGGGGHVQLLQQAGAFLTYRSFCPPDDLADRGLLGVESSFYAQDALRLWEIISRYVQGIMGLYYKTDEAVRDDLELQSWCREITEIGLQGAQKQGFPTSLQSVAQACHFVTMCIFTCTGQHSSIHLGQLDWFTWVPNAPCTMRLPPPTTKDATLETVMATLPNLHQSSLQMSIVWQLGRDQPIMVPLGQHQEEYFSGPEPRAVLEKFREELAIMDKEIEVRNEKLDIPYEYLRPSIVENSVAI

Interstitial collagenase = target: T2, Interstitial collagenase (Homo sapiens, UniProt P03956); assay type: tissue-based, Rheumatoid synovial fibroblasts;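 note: MMP-1 enzyme inhibition assay using a peptide substrate; in other assays of this panel Not Active means under 50% inhibition at 10 µM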
T2 sequence (P03956 whole entry): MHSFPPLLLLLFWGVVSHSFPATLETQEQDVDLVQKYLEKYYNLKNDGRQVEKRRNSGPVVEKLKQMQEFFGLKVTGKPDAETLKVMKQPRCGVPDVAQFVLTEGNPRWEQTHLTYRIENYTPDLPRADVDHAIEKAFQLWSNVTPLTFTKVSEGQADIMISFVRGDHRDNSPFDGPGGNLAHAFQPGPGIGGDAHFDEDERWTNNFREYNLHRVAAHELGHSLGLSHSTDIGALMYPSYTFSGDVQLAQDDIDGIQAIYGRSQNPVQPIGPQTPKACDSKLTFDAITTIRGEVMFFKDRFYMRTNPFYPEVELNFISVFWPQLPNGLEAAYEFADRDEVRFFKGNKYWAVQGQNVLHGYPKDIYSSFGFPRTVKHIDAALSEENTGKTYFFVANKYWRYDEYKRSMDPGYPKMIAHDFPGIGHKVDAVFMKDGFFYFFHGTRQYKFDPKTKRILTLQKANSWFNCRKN

[2] = target: T3, Nitric oxide synthase, inducible (Mus musculus, UniProt P29477); design: species or system Escherichia coli;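 note: inhibition of iNOS enzyme activity measured with L-arginine as substrate; in other assays of this panel Not Active means under 50% inhibition at 10 µM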
T3 sequence (P29477 whole entry): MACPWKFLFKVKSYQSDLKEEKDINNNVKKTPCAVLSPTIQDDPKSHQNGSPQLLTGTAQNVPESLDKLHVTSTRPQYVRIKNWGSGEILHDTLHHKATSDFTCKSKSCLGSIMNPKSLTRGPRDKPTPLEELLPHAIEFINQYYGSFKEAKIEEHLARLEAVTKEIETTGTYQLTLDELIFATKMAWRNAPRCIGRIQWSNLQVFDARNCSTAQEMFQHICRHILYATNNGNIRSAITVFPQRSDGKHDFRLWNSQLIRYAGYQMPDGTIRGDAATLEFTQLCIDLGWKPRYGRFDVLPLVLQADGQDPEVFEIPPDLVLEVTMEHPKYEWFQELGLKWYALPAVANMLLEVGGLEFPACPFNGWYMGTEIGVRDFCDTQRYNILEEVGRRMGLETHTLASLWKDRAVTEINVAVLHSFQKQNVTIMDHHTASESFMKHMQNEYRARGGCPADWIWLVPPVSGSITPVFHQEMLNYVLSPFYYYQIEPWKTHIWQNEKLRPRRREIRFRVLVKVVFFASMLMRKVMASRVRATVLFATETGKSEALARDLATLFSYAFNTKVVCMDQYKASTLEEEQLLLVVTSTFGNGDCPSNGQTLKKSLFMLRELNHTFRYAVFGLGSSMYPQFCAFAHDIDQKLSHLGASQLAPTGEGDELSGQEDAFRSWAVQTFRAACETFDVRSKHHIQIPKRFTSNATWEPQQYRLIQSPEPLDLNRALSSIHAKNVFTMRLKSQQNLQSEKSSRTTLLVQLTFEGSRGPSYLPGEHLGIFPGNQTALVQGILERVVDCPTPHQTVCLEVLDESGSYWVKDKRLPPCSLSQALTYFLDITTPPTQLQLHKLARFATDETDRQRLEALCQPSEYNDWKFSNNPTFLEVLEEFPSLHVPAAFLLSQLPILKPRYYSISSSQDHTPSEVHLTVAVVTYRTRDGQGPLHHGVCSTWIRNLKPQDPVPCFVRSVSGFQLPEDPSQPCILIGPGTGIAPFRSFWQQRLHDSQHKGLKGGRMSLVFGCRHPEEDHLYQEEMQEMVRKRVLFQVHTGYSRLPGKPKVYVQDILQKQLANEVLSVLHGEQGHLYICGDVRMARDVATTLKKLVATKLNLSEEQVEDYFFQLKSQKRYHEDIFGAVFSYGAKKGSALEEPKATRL

Mu-type opioid receptor = Mu-type opioid receptor (Homo sapiens, UniProt P35372); assay: DRUGMATRIX: Opiate mu (OP3, MOP) radioligand binding (ligand: [3H] Diprenorphine); assay type: cell membranes, CHO-K1, Membrane; conditions: cho-k1; Not Active = under 50% inhibition at 10 µM
[3] = target: T4, Alpha-1B adrenergic receptor (Rattus norvegicus, UniProt P15823); assay: DRUGMATRIX: Alpha-1B adrenergic receptor radioligand binding (ligand: prazosin); assay type: cell membranes, Wistar, Liver, Membrane; conditions: Not Active = under 50% inhibition at 10 µM
T4 sequence (P15823 whole entry): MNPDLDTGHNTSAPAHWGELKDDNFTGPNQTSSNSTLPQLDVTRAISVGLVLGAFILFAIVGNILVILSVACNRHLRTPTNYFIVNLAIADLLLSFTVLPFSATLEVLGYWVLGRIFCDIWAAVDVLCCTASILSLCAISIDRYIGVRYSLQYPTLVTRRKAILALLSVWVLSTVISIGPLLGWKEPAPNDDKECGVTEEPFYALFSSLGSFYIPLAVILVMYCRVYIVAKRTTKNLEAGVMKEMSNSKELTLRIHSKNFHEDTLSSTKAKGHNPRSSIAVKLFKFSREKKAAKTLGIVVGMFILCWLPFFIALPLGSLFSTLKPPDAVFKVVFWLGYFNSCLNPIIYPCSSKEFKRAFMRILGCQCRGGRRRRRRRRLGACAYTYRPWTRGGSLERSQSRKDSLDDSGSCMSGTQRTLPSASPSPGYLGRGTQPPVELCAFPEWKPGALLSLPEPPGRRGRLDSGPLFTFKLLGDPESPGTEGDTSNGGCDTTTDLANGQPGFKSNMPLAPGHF

Mu-type opioid receptor, sequence (P35372 whole entry): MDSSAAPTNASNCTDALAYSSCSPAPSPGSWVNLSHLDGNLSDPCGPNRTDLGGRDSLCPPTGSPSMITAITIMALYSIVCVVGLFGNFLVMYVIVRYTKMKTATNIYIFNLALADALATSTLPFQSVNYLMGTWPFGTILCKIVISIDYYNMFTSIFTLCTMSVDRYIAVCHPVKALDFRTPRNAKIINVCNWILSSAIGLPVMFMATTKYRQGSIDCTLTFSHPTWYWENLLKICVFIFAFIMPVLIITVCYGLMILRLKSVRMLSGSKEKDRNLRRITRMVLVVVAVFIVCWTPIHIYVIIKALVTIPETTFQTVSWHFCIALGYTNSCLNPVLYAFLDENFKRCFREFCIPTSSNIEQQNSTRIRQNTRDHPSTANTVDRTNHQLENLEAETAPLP

| Compound | IC50 [1] | IC50 (Interstitial collagenase) | IC50 [2] | IC50 (Mu-type opioid receptor) | IC50 [3] | Ki (Interstitial collagenase) | IC50 ([3]; read-out: IC50) [nM] | Ki ([3]; read-out: Ki) [nM] | Ki [1] | Ki [2] | Ki [3] |
| --- | --- | --- | --- | --- | --- | --- | --- | --- | --- | --- | --- |
| COc1ccc2cc(CC(=O)O)ccc2c1 | Not Active | Not Active | Not Active | Not Active | Not Active |  |  |  |  |  |  |
| CC(C)NC[C@H](O)COc1cccc2[nH]ccc12 | Not Active | Not Active | Not Active | Not Active | Not Active |  |  |  |  |  |  |
| c1ccc2c(c1)cc1ccc3cccc4ccc2c1c34 | Not Active | Not Active | Not Active |  | Not Active |  |  |  |  |  |  |
| CC=CC(=O)N(CC)c1ccccc1C | Not Active | Not Active | Not Active | Not Active | Not Active |  |  |  |  |  |  |
| C=C1C(=O)O[C@@H]2C3O[C@]3(C)CC/C=C(\C)CC[C@@H]12 (stereo not given in full) | Not Active | Not Active | Not Active | Not Active | Not Active |  |  |  |  |  |  |
| CC(/C=C1\SC(=S)N(CC(=O)O)C1=O)=C\c1ccccc1 | Not Active | Not Active | Not Active | Not Active | Not Active |  |  |  |  |  |  |
| CCCCCCCCCc1ccc(O)cc1 [4-NONYLPHENOL] | Not Active | Not Active | Not Active |  | Not Active |  |  |  |  |  |  |
| COc1ccc2c(c1)c(CC(=O)OCC(=O)O)c(C)n2C(=O)c1ccc(Cl)cc1 [ACEMETACIN] | Not Active | Not Active | Not Active | Not Active | Not Active |  |  |  |  |  |  |
| CCCSc1ccc2nc(NC(=O)OC)[nH]c2c1 [ALBENDAZOLE] | Not Active | Not Active | Not Active | Not Active | Not Active |  |  |  |  |  |  |
| Cc1[nH]cnc1CN1CCc2c(c3ccccc3n2C)C1=O [ALOSETRON] | Not Active | Not Active | Not Active | Not Active | Not Active |  |  |  |  |  |  |
| O=c1cc(-c2ccccc2)oc2c1ccc1ccccc12 [ALPHA-NAPHTHOFLAVONE] | Not Active | Not Active | Not Active | Not Active | Not Active |  |  |  |  |  |  |
| N#C[C@H](O[C@@H]1O[C@H](CO[C@@H]2O[C@H](CO)[C@@H](O)[C@H](O)[C@H]2O)[C@@H](O)[C@H](O)[C@H]1O)c1ccccc1 [AMYGDALIN] | Not Active |  | Not Active |  | Not Active | Not Active |  |  |  |  |  |
| C=C1[C@@H]2CCC3[C@@](CC[C@@H]4[C@H](C(=O)O)C[C@@H](O[C@@H]5O[C@H](CO)[C@@H](OS(=O)(=O)[O-])[C@H](OS(=O)(=O)[O-])[C@H]5OC(=O)CC(C)C)C[C@@]34C)(C2)[C@@H]1O.[K+].[K+] (stereo not given in full) [ATRACTYLOSIDE] | Not Active | Not Active | Not Active |  | Not Active |  |  |  |  |  |  |
| CCCC[C@@H](CC)COC(=O)c1ccccc1C(=O)OC[C@@H](CC)CCCC [BIS(2-ETHYLHEXYL)PHTHALATE] | Not Active | Not Active | Not Active |  | Not Active |  |  |  |  |  |  |
| Cc1ccccc1N1CCN(CCc2nnc3n2CCCC3)CC1 [DAPIPRAZOLE] | Not Active | Not Active | Not Active | Not Active |  |  |  |  |  |  |  |
| CN1C[C@H](C(=O)N[C@]2(C)O[C@@]3(O)[C@@H]4CCCN4C(=O)[C@H](Cc4ccccc4)N3C2=O)C=C2c3cccc4[nH]cc(c34)C[C@H]21 [ERGOTAMINE] | Not Active | Not Active | Not Active |  |  |  | 8.21 | 4.55 |  |  |  |
| C=C(C)[C@@H]1[C@H]2OC(=O)[C@@H]1[C@]1(O)C[C@H]3O[C@]34C(=O)O[C@H]2[C@]14C [PICROTOXININ] | Not Active | Not Active | Not Active |  | Not Active |  |  |  |  |  |  |
| CARBOPLATIN | Not Active | Not Active | Not Active |  | Not Active | Not Active |  |  | Not Active | Not Active | Not Active |
| CISPLATIN | Not Active | Not Active | Not Active |  | Not Active | Not Active |  |  | Not Active | Not Active | Not Active |
| GOLD SODIUM THIOMALATE | Not Active | Not Active | Not Active |  | Not Active | Not Active |  |  | Not Active | Not Active | Not Active |
| OXALIPLATIN | Not Active | Not Active | Not Active |  | Not Active | Not Active |  |  | Not Active | Not Active | Not Active |
